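Five compound concentrations were applied to cells in 96-well plates for 48 hours; endpoints were derived by simple linear interpolation of the resulting dose-response curve. Here, GI50 denotes the concentration required for 50% inhibition of growth.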 The source made the active and inactive calls. Cut-off read from the data, not from the text of the source: active = GI50 up to about 1.1 µM and inactive = higher.
Tests used:
Experiment in all cases: NCI tumour cell line growth inhibition, 48 h
[1] = system: A549
[2] = system: CAKI-1
[3] = system: DU-145
[4] = system: HT-29
[5] = system: Hs-578T
[6] = system: LOX IMVI
[7] = system: MOLT-4
[8] = system: NCI-H23
[9] = system: NCI-H460
[10] = system: SF-268
[11] = system: SF-295
[12] = system: SF-539
[13] = system: SK-MEL-5
[14] = system: SNB-19
[15] = system: SR
[16] = system: SW-620
[17] = system: TK-10
[18] = system: UACC-62
[19] = system: NCI-H522
[20] = system: OVCAR-5

Measured: GI50

C=CCOC(=O)Cn1cc(C)c(=O)[nH]c1=O
inactive: [1] > 100 µM | [2] > 100 µM | [3] > 100 µM | [4] > 100 µM | [5] > 100 µM | [6] > 100 µM | [7] > 100 µM | [8] > 100 µM | [9] > 100 µM | [10] > 100 µM | [11] > 100 µM | [12] > 100 µM | [13] > 100 µM | [14] > 100 µM | [15] > 100 µM | [16] > 100 µM | [17] > 100 µM | [18] > 100 µM

Oc1cc(N2CCCC2)ccc1/C=N/N1C(=S)N(c2ccccc2)C(=N\c2ccccc2)/C1=N/c1ccccc1
inactive: [1] > 100 µM | [2] > 100 µM | [3] > 100 µM | [4] > 100 µM | [5] 60.4 µM | [7] > 100 µM | [8] 87.7 µM | [9] > 100 µM | [19] 23.4 µM | [20] > 100 µM | [10] > 100 µM | [11] 94.4 µM | [12] > 100 µM | [13] 73.3 µM | [14] 51.4 µM | [15] > 100 µM | [16] 87.9 µM | [17] 75 µM | [18] 97.7 µM

CCC1=C(CC2NCCc3cc(OC)c(OC)cc32)CC2c3ccccc3CCN2C1 (stereo not given)
inactive: [1] 26.4 µM | [2] 22.4 µM | [3] 38.5 µM | [4] 5.56 µM | [5] 15.4 µM | [6] 13.5 µM | [7] 15.3 µM | [9] 12.6 µM | [19] 14.8 µM | [20] 12.4 µM | [10] 31.5 µM | [11] 20.4 µM | [12] 9.55 µM | [13] 14.8 µM | [14] 36.9 µM | [15] 10.1 µM | [16] 13.8 µM | [17] 26.7 µM | [18] 15.5 µM

Cc1ccc(/N=N/c2c(O)ccc3cc(S(=O)(=O)O)ccc23)c(C)c1
inactive: [1] > 100 µM | [2] > 100 µM | [3] > 100 µM | [4] > 100 µM | [5] > 100 µM | [7] > 100 µM | [8] > 100 µM | [9] > 100 µM | [19] > 100 µM | [20] > 100 µM | [10] > 100 µM | [11] > 100 µM | [12] > 100 µM | [13] > 100 µM | [14] > 100 µM | [15] > 100 µM | [16] > 100 µM | [17] > 100 µM | [18] > 100 µM

COc1ccc2c(c1)CCN1CCCc3ccccc3C21 (stereo not given)
inactive: [1] 50.5 µM | [2] 54.1 µM | [3] > 100 µM | [4] 28.2 µM | [5] 42.1 µM | [6] 22.4 µM | [7] 32.1 µM | [8] 45.8 µM | [19] 34.4 µM | [20] 42.9 µM | [10] 36 µM | [11] 26.4 µM | [12] 17.5 µM | [13] 58.5 µM | [14] 94.6 µM | [15] 31.8 µM | [16] 52 µM | [17] > 100 µM | [18] 31 µM

COc1ccc(N2C(=O)C3ON(Cc4ccc(CC(N)=O)cc4)C(c4c5ccccc5c(C)c5ccccc45)C3C2=O)cc1 (stereo not given)
inactive: [1] 29.8 µM | [2] 20.7 µM | [3] 20.9 µM | [4] 12.9 µM | [5] 54.8 µM | [6] 26.4 µM | [7] 2.2 µM | [8] 32.7 µM | [9] 13.6 µM | [19] 20 µM | [20] 27 µM | [10] 38.7 µM | [11] 22 µM | [14] 27.9 µM | [15] 12.6 µM | [16] 25.9 µM | [17] 17.8 µM | [18] 30.7 µM

O=c1oc2cc(/N=C/c3ccccc3Cl)ccc2c2ccccc12
inactive: [1] > 100 µM | [2] > 100 µM | [3] > 100 µM | [4] > 100 µM | [5] > 100 µM | [6] 87.3 µM | [7] > 100 µM | [8] > 100 µM | [9] > 100 µM | [19] > 100 µM | [20] > 100 µM | [10] 87.1 µM | [11] > 100 µM | [12] > 100 µM | [13] > 100 µM | [14] 97.5 µM | [15] > 100 µM | [16] > 100 µM | [18] 40.7 µM

O=S(=O)(c1ccc2ccccc2c1)N1CCN(S(=O)(=O)c2ccc3ccccc3c2)CC1
inactive: [1] > 100 µM | [2] > 100 µM | [3] > 100 µM | [4] > 100 µM | [5] 31 µM | [6] > 100 µM | [8] > 100 µM | [9] > 100 µM | [19] > 100 µM | [20] > 100 µM | [10] > 100 µM | [11] > 100 µM | [13] > 100 µM | [14] 69.7 µM | [15] > 100 µM | [16] > 100 µM | [17] > 100 µM | [18] > 100 µM

CNC(=S)/C(C#N)=C(\N)N1CCCC1
inactive: [1] > 100 µM | [2] > 100 µM | [3] > 100 µM | [4] > 100 µM | [5] > 100 µM | [7] > 100 µM | [8] > 100 µM | [9] > 100 µM | [19] > 100 µM | [20] > 100 µM | [10] > 100 µM | [12] > 100 µM | [13] > 100 µM | [14] > 100 µM | [15] > 100 µM | [16] > 100 µM | [17] > 100 µM | [18] > 100 µM

CC(C)(C)c1ccc(O)c(Br)c1
inactive: [1] > 100 µM | [3] > 100 µM | [4] > 100 µM | [5] > 100 µM | [6] > 100 µM | [7] > 100 µM | [8] > 100 µM | [9] > 100 µM | [19] > 100 µM | [20] > 100 µM | [10] > 100 µM | [11] > 100 µM | [12] > 100 µM | [13] > 100 µM | [14] > 100 µM | [15] 37.3 µM | [16] > 100 µM | [17] > 100 µM | [18] 95.9 µM

Cc1c([N+](=O)[O-])ccc2c(NCCCN(C)C)ccnc12
inactive: [1] 19.8 µM | [2] 35.6 µM | [3] 33 µM | [4] 14.2 µM | [5] 24 µM | [6] 15.7 µM | [7] > 100 µM | [8] 19 µM | [9] 16.3 µM | [19] 17.3 µM | [20] 29.6 µM | [10] 37 µM | [11] 22.2 µM | [12] 16.8 µM | [13] 16 µM | [15] 29.2 µM | [16] 17.8 µM | [17] 27.5 µM | [18] 20.7 µM

Source: ChEMBL document CHEMBL1201862, “PubChem BioAssay data set” (2004)
